Consider 30 compounds from ChEMBL document CHEMBL4602703, “Lead Optimization of a Pyrrole-Based Dihydroorotate Dehydrogenase Inhibitor Series for the Treatment of Malaria” (J Med Chem, 2020).

pEC50, pIC50: −log10 of the molar value.

Data set [1] deals with Albumin (Homo sapiens, UniProt P02768). Put plainly: Binding affinity to albumin (unknown origin) by chromatographic method. Format: ADME. As to conditions: albumin, read-out: PB (converted).
The test system of data set [2] is Plasmodium falciparum. Put plainly: microbe, parasite or virus in culture. As to conditions: 3D7, 72 h.
Data set [3] can be described thus: Intrinsic clearance in human liver microsomes assessed as per mg protein. Format: ADME, Microsome. (In general: Microsomes from liver hold many membrane-bound enzymes, among them those of drug oxidation.)
A short description of data set [4]: Inhibition of N-terminal His6-tagged Plasmodium falciparum DHODH expressed in Escherichia coli BL21(DE3) cells using L-DHO as substrate by DCIP dye based assay.
Data set [5] can be described thus: Intrinsic clearance in mouse liver microsomes assessed as per mg protein. Format: ADME, Microsome. As to conditions: microsomes.
Data set [6] in a line: physchem. Particulars: octanol/water, pH 7.4.
For data set [7], the target named is Dihydroorotate dehydrogenase (quinone), mitochondrial (Homo sapiens, UniProt Q02127).
Dihydroorotate dehydrogenase (quinone), mitochondrial, sequence (Q02127 whole entry): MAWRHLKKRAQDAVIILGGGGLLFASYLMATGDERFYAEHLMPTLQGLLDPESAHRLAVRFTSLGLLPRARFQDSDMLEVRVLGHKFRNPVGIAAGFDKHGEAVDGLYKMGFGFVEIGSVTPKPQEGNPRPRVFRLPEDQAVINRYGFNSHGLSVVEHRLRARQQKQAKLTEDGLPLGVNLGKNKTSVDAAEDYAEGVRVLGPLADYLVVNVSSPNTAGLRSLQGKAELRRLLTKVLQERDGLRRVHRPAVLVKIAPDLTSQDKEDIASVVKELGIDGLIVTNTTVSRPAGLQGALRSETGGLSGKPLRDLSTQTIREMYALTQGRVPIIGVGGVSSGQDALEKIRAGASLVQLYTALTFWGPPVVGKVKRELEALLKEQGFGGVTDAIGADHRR

Albumin, sequence (P02768 whole entry): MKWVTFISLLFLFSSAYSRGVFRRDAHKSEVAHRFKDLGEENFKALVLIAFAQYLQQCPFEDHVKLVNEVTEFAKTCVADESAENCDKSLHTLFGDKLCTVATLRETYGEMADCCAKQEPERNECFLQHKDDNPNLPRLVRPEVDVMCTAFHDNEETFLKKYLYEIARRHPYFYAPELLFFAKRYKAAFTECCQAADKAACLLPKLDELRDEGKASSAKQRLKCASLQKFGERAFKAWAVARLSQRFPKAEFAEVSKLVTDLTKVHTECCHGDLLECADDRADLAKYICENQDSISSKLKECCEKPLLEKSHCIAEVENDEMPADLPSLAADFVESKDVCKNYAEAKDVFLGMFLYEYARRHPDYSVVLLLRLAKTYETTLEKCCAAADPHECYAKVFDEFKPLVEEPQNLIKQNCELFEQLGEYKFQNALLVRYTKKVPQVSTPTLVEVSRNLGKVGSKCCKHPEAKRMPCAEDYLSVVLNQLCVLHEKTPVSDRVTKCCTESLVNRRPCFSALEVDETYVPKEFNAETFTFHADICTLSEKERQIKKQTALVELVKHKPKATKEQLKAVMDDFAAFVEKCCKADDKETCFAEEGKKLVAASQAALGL

As a reminder, the pEC50 is the negative decadic logarithm of the EC50, by convention in mol/L. The low end stands for a large EC50, the high end for a small EC50. One may read the microsomal CLint as the rate of metabolic loss divided by the concentration. In general, pIC50 refers to −log10 of the IC50, conventionally taken in molar units. Read a high pIC50 as a low IC50. The term logD denotes the decadic logarithm of the distribution of all forms, ionised or not, between an organic phase and buffer at a given pH. In the case of `Cc1[nH]c(C(=O)NC2CC2)c(C)c1C(=O)c1ccc(C(F)(F)F)cn1`, in data set [1], the fraction unbound was 0.496. Also, the pEC50 in data set [2] is 4.70 to 5.00. Moreover, the microsomal CLint in data set [3] came out at 8 µL/min/mg; in data set [5], 24 µL/min/mg. For the same compound, the pIC50 in data set [4] is below 4.00. This compound showed a logD in data set [6] of 2.4.

With `CCOC(=O)c1[nH]cc(Cc2ccc(C(F)(F)F)cc2Cl)c1C`, the pIC50 in data set [7] was below 4.00; in data set [4], 7.38. For the same compound, in data set [2], the pEC50 is 7.54.

`Cc1c(Cc2ccc(C(F)(F)F)cc2)c[nH]c1C(=O)NC1CC1`: the results for the pIC50 in data set [7] and in data set [4] were below 4.00 and 7.32, respectively. Besides, in data set [1], the fraction unbound was 0.029. Moreover, the negative-log EC50 (pEC50) in data set [2] is 7.74. Moreover, the microsomal CLint was 19 µL/min/mg in data set [3] and 173 µL/min/mg in data set [5]. In addition, the logD in data set [6] is 3.7.

As to `Cc1c(Cc2ccc(C(F)(F)F)nc2)c[nH]c1C(=O)NC(C)C`, the figures for the pIC50 in data set [7] and in data set [4] were below 4.00 and 7.10, respectively. The pEC50 in data set [2] is 7.89.

For `Cc1[nH]c(C(=O)NC2CCC2)c(C)c1Cc1ccc(C(F)(F)F)nc1`, the results for the negative-log IC50 (pIC50) in data set [7] and in data set [4] were below 4.00 and 7.14 to 7.38, respectively. In data set [2], this compound had a pEC50 of 7.18.

`COc1cc(C(F)(F)F)ccc1Cc1c[nH]c(C(=O)NC2CC2)c1C`: the figures for the pIC50 in data set [7] and in data set [4] were below 4.00 and 6.96, respectively. Besides, the pEC50 in data set [2] is 6.59.

Consider `Cc1[nH]c(C(=O)N2CCCC2)cc1Cc1ccc(C(F)(F)F)nc1`, for which the fraction unbound in data set [1] was 0.185. The compound further gave a pEC50 in data set [2] below 5.00. The microsomal CLint in data set [3] was 226 µL/min/mg; in data set [5], 138 µL/min/mg. This compound gave a pIC50 in data set [4] below 4.00. The logD in data set [6] was determined as 3.2.

Regarding `O=C(NC1CC1)c1cc(Cc2ccc(C(F)(F)F)nc2)c[nH]1`, the negative logarithm of the IC50 (pIC50) in data set [7] is below 4.00; in data set [4] it was 5.60. For the same compound, in data set [1], the fraction unbound is 0.333. For the same compound, the pEC50 in data set [2] was 5.77 to 6.30. For the same compound, the values for the microsomal CLint in data set [3] and in data set [5] were 31 µL/min/mg and 96 µL/min/mg, respectively. In data set [6], this compound returned a logD of 2.6.

With `Cc1[nH]c(C(=O)NC2CC2)c(C)c1Oc1ccc(C(F)(F)F)nc1`, the pIC50 in data set [7] was below 4.00; in data set [4] it was 6.10. Moreover, the fraction unbound in data set [1] is 0.573. The compound also gave a pEC50 in data set [2] of 6.54. Moreover, the microsomal CLint worked out at 8 µL/min/mg in data set [3] and 22 µL/min/mg in data set [5]. In data set [6], this compound had a logD of 1.7.

Take `Cc1[nH]c(C(=O)N2CCC2)c(C)c1Cc1ccc(C(F)(F)F)cn1`: the results for the pIC50 in data set [7] and in data set [4] were below 4.00 and 5.74, respectively. The compound further had a pEC50 in data set [2] of 6.00.

As to `CCNC(=O)c1[nH]c(C)c(Cc2ccc(C(F)(F)F)nc2)c1C`, the values for the pIC50 in data set [7] and in data set [4] were below 4.00 and 7.27, respectively. Besides, in data set [1], the fraction unbound is 0.229. The same compound gave a negative logarithm of the EC50 (pEC50) in data set [2] of 7.48. Further, the microsomal CLint in data set [3] is 70 µL/min/mg; in data set [5], 54 µL/min/mg. Further, the logD in data set [6] is 2.8.

In the case of `Cc1c(Cc2ccc(C(F)(F)F)nc2)c[nH]c1C(=O)NC1CCC1`, the pIC50 was below 4.00 in data set [7] and 7.36 in data set [4]. Also, in data set [1], the fraction unbound was 0.165. This compound gave a pEC50 in data set [2] of 7.57. The microsomal CLint in data set [3] stood at 29 µL/min/mg; in data set [5], 204 µL/min/mg. The compound also had a logD in data set [6] of 3.2.

For the compound `Cc1[nH]c(C(=O)NC2CCC2)c(C)c1Cc1ccc(C(F)(F)F)cn1`, the pIC50 is below 4.00 in data set [7] and 6.39 in data set [4]. Moreover, the pEC50 in data set [2] was 6.17 to 6.33.

As for `Cc1[nH]c(C(=O)N2CCC2)c(C)c1Cc1ccc(C(F)(F)F)nc1`, the fraction unbound in data set [1] was 0.228. Moreover, the negative logarithm of the EC50 (pEC50) in data set [2] is 6.89. Also, the microsomal CLint came to 31 µL/min/mg in data set [3] and 53 µL/min/mg in data set [5]. In data set [4], the pIC50 was 6.85. Also, the logD in data set [6] turned out to be 2.9.

In turn, `Cc1c(Cc2cnc(C(F)(F)F)nc2)c[nH]c1C(=O)NC1CC1` had a pIC50 in data set [7] below 4.00. Also, the pEC50 in data set [2] is 6.41. In addition, in data set [3], the microsomal CLint was below 7 µL/min/mg. Moreover, the logD in data set [6] amounted to 2.5.

`CCOC(=O)c1[nH]c(C)c(Cc2cc(OC)cc(OC)c2)c1C`: the pIC50 in data set [7] is below 4.00; in data set [4], 5.64. Besides, the negative logarithm of the EC50 (pEC50) in data set [2] was 5.00.

As for `Cc1c(Cc2ccc(C(F)(F)F)nc2)c[nH]c1C(=O)N1CC(F)C1`, the pIC50 in data set [7] was below 4.00; in data set [4] it was 6.92. In data set [2], the pEC50 was 7.29. In addition, the microsomal CLint in data set [3] was determined as 7 µL/min/mg; in data set [5], 145 µL/min/mg.

In the case of `Cc1[nH]c(C(=O)N2CCCCC2)cc1Cc1ccc(C(F)(F)F)nc1`, the fraction unbound in data set [1] is 0.125. This compound also showed a pEC50 in data set [2] below 4.70. The figures for the microsomal CLint in data set [3] and in data set [5] were 173 µL/min/mg and 93 µL/min/mg, respectively. In data set [4], this compound gave a negative logarithm of the IC50 (pIC50) below 4.00. This compound also had a logD in data set [6] of 3.5.

With `CCOC(=O)c1[nH]c(C)c(Cc2ccc(OCC)cc2)c1C`, the pIC50 in data set [7] is below 4.00. In data set [2], the pEC50 was 6.60 to 6.64. Besides, the values for the microsomal CLint in data set [3] and in data set [5] were 188 µL/min/mg and 470 µL/min/mg, respectively. The compound further displayed a pH-dependent lipophilicity (logD) in data set [6] of 4.5.

On to `CCOC(=O)c1[nH]c(C)c(Cc2ccc(C(F)(F)F)cn2)c1C`, for which the pIC50 in data set [7] is below 4.00; in data set [4], 6.52. In data set [2], this compound showed a negative-log EC50 (pEC50) of 7.00.

Consider `CCCCNC(=O)c1[nH]c(C)c(Cc2ccc(C(F)(F)F)cc2)c1C`, for which the results for the negative-log IC50 (pIC50) in data set [7] and in data set [4] were below 4.00 and 5.00, respectively. This compound also had a pEC50 in data set [2] of 6.15.

Regarding `Cc1[nH]c(C(=O)NC2CC2)c(C)c1Cc1ccc(C(F)(F)F)nc1`, the pIC50 in data set [7] was below 4.00. The fraction unbound in data set [1] was 0.172. Moreover, in data set [2], the negative-log EC50 (pEC50) was 7.44. Also, the microsomal CLint worked out at 15 µL/min/mg in data set [3] and 33 µL/min/mg in data set [5]. This compound also registered a logD in data set [6] of 3.

On to `CCOC(=O)c1[nH]c(C)c(Cc2ccc(C(C)C)cc2)c1C`, for which the pIC50 in data set [7] is below 4.00; in data set [4], 6.24. This compound also showed a pEC50 in data set [2] of 6.33.

As to `CCNC(=O)c1[nH]c(C)c(Cc2ccc(C(F)(F)F)cc2)c1C`, the negative logarithm of the IC50 (pIC50) in data set [7] was below 4.00; in data set [4] it was 6.85. This compound also gave a negative-log EC50 (pEC50) in data set [2] of 7.29.

Regarding `Cc1c(Cc2cccnc2)c[nH]c1C(=O)NC1CC1`, the fraction unbound in data set [1] is 0.268. Further, in data set [2], the pEC50 is below 5.00. Moreover, the figures for the microsomal CLint in data set [3] and in data set [5] were 19 µL/min/mg and 138 µL/min/mg, respectively. This compound also showed a pIC50 in data set [4] below 4.00.

For `CCCC(=O)c1[nH]cc(Cc2ccc(C(F)(F)F)nc2)c1C`, the pIC50 in data set [7] was below 4.00; in data set [4], 7.01. Besides, in data set [2], the pEC50 was 7.19.

For the compound `CCOC(=O)c1[nH]cc(Cc2ccc(C(F)(F)F)cc2)c1C`, the pIC50 in data set [7] is below 4.00; in data set [4], 6.89. The pEC50 in data set [2] was 7.22.

In the case of `Cc1c(Cc2ccc(C(F)(F)F)nc2)c[nH]c1C(=O)C1CC1`, the figures for the pIC50 in data set [7] and in data set [4] were below 4.00 and 7.74, respectively. In data set [2], this compound had a negative-log EC50 (pEC50) of 8.00.

For `Cc1[nH]c(C(=O)NC2CC2)cc1Cc1cnc(C(F)(F)F)nc1`, the fraction unbound in data set [1] was 0.555. In data set [2], this compound gave a pEC50 below 5.00. Besides, the microsomal CLint in data set [3] is below 7 µL/min/mg; in data set [5], 8 µL/min/mg. The pIC50 in data set [4] was below 4.00. Moreover, the logD in data set [6] came out at 2.5.

On to `COCc1c(Cc2ccc(C(F)(F)F)nc2)c[nH]c1C(=O)NC1CC1`, for which the negative-log IC50 (pIC50) in data set [7] was below 4.00; in data set [4], 6.35. The same compound had a pEC50 in data set [2] of 6.62.
